Key:
Type in all cases: functional
HCT-116 = experiment: Antiproliferative activity against human HCT-116 cells assessed as cell growth inhibition measured after 72 hrs by crystal violet staining based assay; conditions: HCT-116, 72 h
NCI-H460 [1] = experiment: Antiproliferative activity against human NCI-H460 cells assessed as cell growth inhibition measured after 72 hrs by crystal violet staining based assay; conditions: NCI-H460, 72 h
SK-OV-3 = experiment: Antiproliferative activity against human SK-OV-3 cells assessed as cell growth inhibition measured after 72 hrs by crystal violet staining based assay; conditions: SK-OV-3, 72 h
NCI-H460 [2] = experiment: Induction of apoptosis in human NCI-H460 cells assessed as early apoptotic cells measured after 72 hrs by Annexin V-FITC and propidium iodide staining based flow cytometry analysis (Rvb= 6.61%)
NCI-H460 [3] = experiment: Induction of apoptosis in human NCI-H460 cells assessed as late apoptotic cells measured after 72 hrs by Annexin V-FITC and propidium iodide staining based flow cytometry analysis (Rvb= 6.93%)

COc1cc(CNC(=O)CCCC/C=C/C(C)C)ccc1O [CAPSAICIN]
IC50 (HCT-116): 40.2 µM | IC50 (NCI-H460 [1]): 30.7 µM | IC50 (SK-OV-3): 22 µM | Activity (NCI-H460 [2]): 7.17% | Activity (NCI-H460 [3]): 7.25%

COc1cccc2c1C(=O)c1c(O)c3c(c(O)c1C2=O)C[C@@](O)(C(=O)CO)C[C@@H]3O[C@H]1C[C@H](N)[C@H](O)[C@H](C)O1 [DOXORUBICIN]
IC50 (HCT-116): 0.0578 µM | IC50 (NCI-H460 [1]): 0.00429 µM | IC50 (SK-OV-3): 0.0258 µM | Activity (NCI-H460 [2]): 7.16%

From ChEMBL document CHEMBL5055675, “Apoptosis Inducing 1,3,4-Oxadiazole Conjugates of Capsaicin: Their In Vitro Antiproliferative and In Silico Studies” (ACS Med Chem Lett, 2021)
